Laboratory results taken from PMC5218480 (PLoS ONE, 2017).

System: MV-4-11 cells
Assay: Gene expression microarray analysis (Affymetrix PrimeView) and GSEA
Assay type: cell-based, human
Parameters: RFU PODN (11730768_x_at) / Fold change /veh PODN (11730768_x_at) / RFU LINC00158 (11744669_a_at) / Fold change /veh LINC00158 (11744669_a_at) / RFU DUSP10 (11751237_a_at) / Fold change /veh DUSP10 (11751237_a_at) / RFU ID3 (11757404_x_at) / Fold change /veh ID3 (11757404_x_at) / RFU PLEKHG5 (11737974_s_at) / Fold change /veh PLEKHG5 (11737974_s_at) / RFU LRRC4B (11730491_at) / Fold change /veh LRRC4B (11730491_at) / RFU GIMAP4 (11747438_a_at) / Fold change /veh GIMAP4 (11747438_a_at) / RFU KRT8 (11758183_x_at) / Fold change /veh KRT8 (11758183_x_at) / RFU CNN1 (11734310_a_at) / Fold change /veh CNN1 (11734310_a_at) / RFU VPS37D (11726825_at) / Fold change /veh VPS37D (11726825_at) / RFU C10orf10 (11716522_x_at) / Fold change /veh C10orf10 (11716522_x_at) / RFU KIR2DL2 /// KIR2DL4 /// KIR2DL5A /// KIR2DL5B /// KIR2DS1 /// KIR2DS2 /// KIR2DS3 /// KIR2DS4 /// KIR3DL3 /// KIR3DL3 /// KIR3DS1 (11738374_at) / Fold change /veh KIR2DL2 /// KIR2DL4 /// KIR2DL5A /// KIR2DL5B /// KIR2DS1 /// KIR2DS2 /// KIR2DS3 /// KIR2DS4 /// KIR3DL3 /// KIR3DL3 /// KIR3DS1 (11738374_at) / RFU C1QL1 (11718748_at) / Fold change /veh C1QL1 (11718748_at) / RFU TMPRSS4 (11747572_a_at) / Fold change /veh TMPRSS4 (11747572_a_at) / RFU HAMP (11756126_x_at) / Fold change /veh HAMP (11756126_x_at) / RFU RNFT2 (11725882_a_at) / Fold change /veh RNFT2 (11725882_a_at) / RFU NR4A2 (11747474_a_at) / Fold change /veh NR4A2 (11747474_a_at) / RFU ABCC12 (11746883_a_at) / Fold change /veh ABCC12 (11746883_a_at) / RFU TMEM136 (11760407_x_at) / Fold change /veh TMEM136 (11760407_x_at) / RFU CLDN22 /// WWC2 (11732394_at) / Fold change /veh CLDN22 /// WWC2 (11732394_at) / RFU HLA-DPB1 (11760878_x_at) / Fold change /veh HLA-DPB1 (11760878_x_at) / RFU SPINT1 (11716480_a_at) / Fold change /veh SPINT1 (11716480_a_at) / RFU GAP43 (11754022_s_at) / Fold change /veh GAP43 (11754022_s_at) / RFU A4GNT (11735810_at) / Fold change /veh A4GNT (11735810_at) / RFU PRB3 (11715151_x_at) / Fold change /veh PRB3 (11715151_x_at) / RFU TUBB4B (11761932_at) / Fold change /veh TUBB4B (11761932_at) / RFU CAPN14 (11732068_a_at) / Fold change /veh CAPN14 (11732068_a_at) / RFU TMCC2 (11721928_a_at) / Fold change /veh TMCC2 (11721928_a_at) / RFU IRGQ (11745062_a_at) / Fold change /veh IRGQ (11745062_a_at) / RFU FAM174B (11720279_a_at) / Fold change /veh FAM174B (11720279_a_at) / RFU TMPRSS4 (11748680_a_at) / Fold change /veh TMPRSS4 (11748680_a_at) / RFU FAM212B (11763350_a_at) / Fold change /veh FAM212B (11763350_a_at) / RFU PLEKHG5 (11743358_a_at) / Fold change /veh PLEKHG5 (11743358_a_at) / RFU ZSCAN30 (11745921_a_at) / Fold change /veh ZSCAN30 (11745921_a_at) / RFU CMKLR1 (11741424_a_at) / Fold change /veh CMKLR1 (11741424_a_at) / RFU LOC101060620 /// MAPK8IP1 (11723275_at) / Fold change /veh LOC101060620 /// MAPK8IP1 (11723275_at) / RFU SPTSSB (11747773_x_at) / Fold change /veh SPTSSB (11747773_x_at) / RFU PRSS12 (11739890_at) / Fold change /veh PRSS12 (11739890_at) / RFU BIN1 (11741810_x_at) / Fold change /veh BIN1 (11741810_x_at) / RFU WNT11 (11732464_a_at) / Fold change /veh WNT11 (11732464_a_at) / RFU C10orf10 (11716521_a_at) / Fold change /veh C10orf10 (11716521_a_at) / RFU C5orf56 (11738089_at) / Fold change /veh C5orf56 (11738089_at) / RFU CYB561 (11721691_x_at) / Fold change /veh CYB561 (11721691_x_at) / RFU ANKRD19P (11752326_a_at) / Fold change /veh ANKRD19P (11752326_a_at) / RFU OR2T12 /// OR2T33 /// OR2T8 (11738714_s_at) / Fold change /veh OR2T12 /// OR2T33 /// OR2T8 (11738714_s_at) / RFU VCAN (11748164_a_at) / Fold change /veh VCAN (11748164_a_at) / RFU JSRP1 (11732532_at) / Fold change /veh JSRP1 (11732532_at) / RFU KRTAP10-11 (11738290_x_at) / Fold change /veh KRTAP10-11 (11738290_x_at) / RFU MYO3A (11730013_a_at) / Fold change /veh MYO3A (11730013_a_at) / RFU EBF3 (11725865_a_at) / Fold change /veh EBF3 (11725865_a_at) / RFU CAMK2N1 (11719241_x_at) / Fold change /veh CAMK2N1 (11719241_x_at) / RFU C5orf56 (11738088_a_at) / Fold change /veh C5orf56 (11738088_a_at) / RFU OLFML3 (11715873_a_at) / Fold change /veh OLFML3 (11715873_a_at) / RFU LOC100653217 /// NTM (11731650_a_at) / Fold change /veh LOC100653217 /// NTM (11731650_a_at) / RFU MAPK11 (11762145_a_at) / Fold change /veh MAPK11 (11762145_a_at) / RFU FIZ1 (11724087_x_at) / Fold change /veh FIZ1 (11724087_x_at) / RFU OASL (11726364_x_at) / Fold change /veh OASL (11726364_x_at) / RFU SOX15 (11748057_x_at) / Fold change /veh SOX15 (11748057_x_at) / RFU CD79A (11719716_a_at) / Fold change /veh CD79A (11719716_a_at) / RFU HIST1H1D (11736915_at) / Fold change /veh HIST1H1D (11736915_at) / RFU CASKIN2 (11723855_a_at) / Fold change /veh CASKIN2 (11723855_a_at) / RFU LOC730098 (11760151_x_at) / Fold change /veh LOC730098 (11760151_x_at) / RFU OR4N2 (11742367_at) / Fold change /veh OR4N2 (11742367_at) / RFU PRRT2 (11749266_a_at) / Fold change /veh PRRT2 (11749266_a_at) / RFU SNX32 (11753110_a_at) / Fold change /veh SNX32 (11753110_a_at) / RFU CDHR5 (11726645_a_at) / Fold change /veh CDHR5 (11726645_a_at) / RFU RCAN1 (11760418_a_at) / Fold change /veh RCAN1 (11760418_a_at) / RFU FAM167A (11723789_a_at) / Fold change /veh FAM167A (11723789_a_at) / RFU FAM26E (11764081_at) / Fold change /veh FAM26E (11764081_at) / RFU ISYNA1 (11749810_s_at) / Fold change /veh ISYNA1 (11749810_s_at) / RFU ACY1 (11761880_at) / Fold change /veh ACY1 (11761880_at) / RFU 11764098_at / Fold change /veh 11764098_at / RFU SAMD14 (11745864_x_at) / Fold change /veh SAMD14 (11745864_x_at) / RFU NPB (11741838_a_at) / Fold change /veh NPB (11741838_a_at) / RFU TMPRSS6 (11731388_a_at) / Fold change /veh TMPRSS6 (11731388_a_at) / RFU KRTAP10-2 (11738614_at) / Fold change /veh KRTAP10-2 (11738614_at) / RFU ARHGAP8 /// PRR5-ARHGAP8 (11727945_x_at) / Fold change /veh ARHGAP8 /// PRR5-ARHGAP8 (11727945_x_at) / RFU KRTAP5-7 /// NADSYN1 (11734609_at) / Fold change /veh KRTAP5-7 /// NADSYN1 (11734609_at) / RFU RASL12 (11751679_a_at) / Fold change /veh RASL12 (11751679_a_at) / RFU CDKN2B (11736163_a_at) / Fold change /veh CDKN2B (11736163_a_at) / RFU PRF1 (11729649_at) / Fold change /veh PRF1 (11729649_at) / RFU, ZNF638 /// ZNF638-IT1 / Fold change vs veh, ZNF638 /// ZNF638-IT1 / RFU, PANK3 / Fold change vs veh, PANK3 / RFU, SH3YL1 / Fold change vs veh, SH3YL1 / RFU, ZEB2 / Fold change vs veh, ZEB2 / RFU, NRIP1 / Fold change vs veh, NRIP1 / RFU, PTTG1IP / Fold change vs veh, PTTG1IP / RFU, CAPN2 / Fold change vs veh, CAPN2 / RFU, MED14 / Fold change vs veh, MED14 / RFU, SNORA58 / Fold change vs veh, SNORA58 / RFU, C1orf63 / Fold change vs veh, C1orf63 / RFU, LRRFIP1 / Fold change vs veh, LRRFIP1 / RFU, NDUFAF7 / Fold change vs veh, NDUFAF7 / RFU, SLC12A2 / Fold change vs veh, SLC12A2 / RFU, IBTK / Fold change vs veh, IBTK / RFU, ESF1 / Fold change vs veh, ESF1 / Fold change vs veh, TMEM50B / RFU, TAOK1 / Fold change vs veh, TAOK1 / RFU, ACBD3 / Fold change vs veh, ACBD3 / RFU, TMA16 / Fold change vs veh, TMA16 / RFU, RWDD3 / Fold change vs veh, RWDD3 / RFU, BCAT1 / Fold change vs veh, BCAT1 / RFU, EDEM3 / Fold change vs veh, EDEM3 / RFU, TMEM33 / Fold change vs veh, TMEM33 / RFU, WDR75 / Fold change vs veh, WDR75 / RFU, AHCTF1 / Fold change vs veh, AHCTF1 / RFU, TFRC / Fold change vs veh, TFRC / RFU, ZDHHC17 / Fold change vs veh, ZDHHC17 / RFU, NOM1 / Fold change vs veh, NOM1 / RFU, ARL8B / Fold change vs veh, ARL8B / RFU, ZBTB11 / Fold change vs veh, ZBTB11 / RFU, TAMM41 / Fold change vs veh, TAMM41 / RFU, KIAA1704 /// LOC100996395 / Fold change vs veh, KIAA1704 /// LOC100996395 / RFU, ING1 / Fold change vs veh, ING1 / RFU, TRMT61B / Fold change vs veh, TRMT61B / RFU, FUBP3 / Fold change vs veh, FUBP3 / RFU, TP53 / Fold change vs veh, TP53 / RFU, TNKS2 / Fold change vs veh, TNKS2 / RFU, ZFP14 / Fold change vs veh, ZFP14 / RFU, ACTR2 / Fold change vs veh, ACTR2 / RFU, PPP3R1 / Fold change vs veh, PPP3R1 / RFU, PIK3R1 / Fold change vs veh, PIK3R1 / RFU, HNRNPA1 / Fold change vs veh, HNRNPA1 / RFU, RNF170 / Fold change vs veh, RNF170 / RFU, ZNF28 / Fold change vs veh, ZNF28 / RFU, RNGTT / Fold change vs veh, RNGTT / RFU, OGT / Fold change vs veh, OGT / RFU, BRD1 / Fold change vs veh, BRD1 / RFU, MARS / Fold change vs veh, MARS / RFU, ZNF655 / Fold change vs veh, ZNF655 / RFU, FAHD1 / Fold change vs veh, FAHD1 / RFU, BDP1 / Fold change vs veh, BDP1 / RFU, LRRCC1 / Fold change vs veh, LRRCC1 / RFU, ARID1A / Fold change vs veh, ARID1A / RFU, ZNF146 / Fold change vs veh, ZNF146 / RFU, ZNF330 / Fold change vs veh, ZNF330 / RFU, GPN3 / Fold change vs veh, GPN3 / RFU, C9orf123 / Fold change vs veh, C9orf123 / RFU, N4BP2L2 / Fold change vs veh, N4BP2L2 / RFU, ARFIP1 / Fold change vs veh, ARFIP1 / RFU, FAM179B / Fold change vs veh, FAM179B / RFU, BCL10 / Fold change vs veh, BCL10 / RFU, UHRF1BP1L / Fold change vs veh, UHRF1BP1L / RFU, BET1 / Fold change vs veh, BET1 / RFU, CNOT2 / Fold change vs veh, CNOT2 / RFU, ZNF268 / Fold change vs veh, ZNF268 / Fold change vs veh, ZNF507 / RFU, DGCR2 / Fold change vs veh, DGCR2 / RFU, WDSUB1 / Fold change vs veh, WDSUB1 / Fold change vs veh, HSP90B1 /// MIR3652 / RFU, ADSS / Fold change vs veh, ADSS / RFU, GK / Fold change vs veh, GK / RFU, ZNF148 / Fold change vs veh, ZNF148 / RFU, TAF9 / Fold change vs veh, TAF9 / RFU, SLC1A5 / Fold change vs veh, SLC1A5 / RFU, SLMO2 / Fold change vs veh, SLMO2 / RFU, ABCC4 / Fold change vs veh, ABCC4 / RFU, LOC101060439 /// RAP1B / Fold change vs veh, LOC101060439 /// RAP1B / RFU, RFX7 / Fold change vs veh, RFX7 / RFU, GTPBP10 / Fold change vs veh, GTPBP10 / RFU, CNEP1R1 / Fold change vs veh, CNEP1R1 / RFU, BIVM-ERCC5 /// ERCC5 / Fold change vs veh, BIVM-ERCC5 /// ERCC5 / RFU, ILF3 / Fold change vs veh, ILF3 / RFU 11762660_at / Fold change /veh 11762660_at / RFU VCAN (11757783_s_at) / Fold change /veh VCAN (11757783_s_at) / RFU DDX43 (11728927_at) / Fold change /veh DDX43 (11728927_at) / RFU KRT8 (11758188_x_at) / Fold change /veh KRT8 (11758188_x_at) / RFU NKD1 (11759106_at) / Fold change /veh NKD1 (11759106_at) / RFU SRD5A1 (11742802_a_at) / Fold change /veh SRD5A1 (11742802_a_at) / RFU TPSAB1 /// TPSB2 (11721975_s_at) / Fold change /veh TPSAB1 /// TPSB2 (11721975_s_at) / RFU GSTM3 (11746129_a_at) / Fold change /veh GSTM3 (11746129_a_at) / RFU IL23R (11737362_x_at) / Fold change /veh IL23R (11737362_x_at) / RFU TMEM51 (11727254_a_at) / Fold change /veh TMEM51 (11727254_a_at) / RFU PIWIL2 (11732686_x_at) / Fold change /veh PIWIL2 (11732686_x_at) / RFU ORM1 (11744905_x_at) / Fold change /veh ORM1 (11744905_x_at) / RFU CCDC152 (11743942_at) / Fold change /veh CCDC152 (11743942_at) / RFU ECM1 (11717891_a_at) / Fold change /veh ECM1 (11717891_a_at) / RFU IL23R (11748794_a_at) / Fold change /veh IL23R (11748794_a_at) / RFU TNFAIP8L3 (11732012_x_at) / Fold change /veh TNFAIP8L3 (11732012_x_at) / RFU MBOAT4 (11741988_at) / Fold change /veh MBOAT4 (11741988_at) / RFU 11764193_at / Fold change /veh 11764193_at / RFU TMEM53 (11763286_at) / Fold change /veh TMEM53 (11763286_at) / RFU MAGEB2 (11727129_at) / Fold change /veh MAGEB2 (11727129_at) / RFU TMEM200A (11744735_a_at) / Fold change /veh TMEM200A (11744735_a_at) / RFU CCDC152 (11751479_a_at) / Fold change /veh CCDC152 (11751479_a_at) / RFU FAM211A (11726209_a_at) / Fold change /veh FAM211A (11726209_a_at) / RFU RGS16 (11746705_a_at) / Fold change /veh RGS16 (11746705_a_at) / RFU VCAN (11755009_s_at) / Fold change /veh VCAN (11755009_s_at) / RFU RHOB (11743442_s_at) / Fold change /veh RHOB (11743442_s_at) / RFU RGS16 (11720943_a_at) / Fold change /veh RGS16 (11720943_a_at) / RFU RGS16 (11720944_at) / Fold change /veh RGS16 (11720944_at) / RFU, VPS4B / Fold change vs veh, VPS4B / RFU, CREB1 / Fold change vs veh, CREB1 / RFU, DNAJC13 / Fold change vs veh, DNAJC13 / RFU, GNAQ / Fold change vs veh, GNAQ / RFU, CDK5R1 / Fold change vs veh, CDK5R1 / RFU, ZRANB3 / Fold change vs veh, ZRANB3 / RFU, CUL4A / Fold change vs veh, CUL4A / RFU, CCNY / Fold change vs veh, CCNY / RFU, UFL1 / Fold change vs veh, UFL1 / RFU, COG3 / Fold change vs veh, COG3 / RFU, DIAPH2 / Fold change vs veh, DIAPH2 / RFU, SKA2 / Fold change vs veh, SKA2 / RFU, AFF3 / Fold change vs veh, AFF3 / RFU, LMF1 / Fold change vs veh, LMF1 / RFU, IPO11 / Fold change vs veh, IPO11 / RFU, DFFB / Fold change vs veh, DFFB / RFU, FOXP1 / Fold change vs veh, FOXP1 / RFU, CARD8 / Fold change vs veh, CARD8 / RFU, STRN3 / Fold change vs veh, STRN3 / RFU, ADK / Fold change vs veh, ADK / RFU, RASSF2 / Fold change vs veh, RASSF2 / RFU, WIPF1 / Fold change vs veh, WIPF1 / RFU, LARP1B / Fold change vs veh, LARP1B / RFU, RASA1 / Fold change vs veh, RASA1 / RFU, RB1 / Fold change vs veh, RB1 / RFU, PPFIA1 / Fold change vs veh, PPFIA1 / RFU, MAT2A / Fold change vs veh, MAT2A / RFU, CCT5 / Fold change vs veh, CCT5 / RFU, WDR92 / Fold change vs veh, WDR92 / RFU, CUX1 / Fold change vs veh, CUX1 / RFU, TTC7A / Fold change vs veh, TTC7A / RFU, TMEM135 / Fold change vs veh, TMEM135 / RFU, DEPTOR / Fold change vs veh, DEPTOR / RFU, CPM / Fold change vs veh, CPM / RFU, DNAJB6 / Fold change vs veh, DNAJB6 / RFU, CACNA2D3 / Fold change vs veh, CACNA2D3 / RFU, DTX4 / Fold change vs veh, DTX4 / RFU, TFCP2 / Fold change vs veh, TFCP2 / RFU, GMCL1 /// GMCL1P1 / Fold change vs veh, GMCL1 /// GMCL1P1 / RFU, AEBP2 / Fold change vs veh, AEBP2 / RFU, SNHG1 /// SNORD22 /// SNORD25 /// SNORD26 /// SNORD27 /// SNORD28 /// SNORD29 /// SNORD31 / Fold change vs veh, SNHG1 /// SNORD22 /// SNORD25 /// SNORD26 /// SNORD27 /// SNORD28 /// SNORD29 /// SNORD31 / Fold change (Aza/veh), C12orf56 (ProbeSet 11735607_a_at) / Fold change (ACY-1035/veh), C12orf56 (ProbeSet 11735607_a_at) / Fold change (Aza/veh), FGFR1OP (ProbeSet 11751329_s_at) / Fold change (ACY-1035/veh), FGFR1OP (ProbeSet 11751329_s_at) / Fold change (Aza/veh), VPS36 (ProbeSet 11739960_a_at) / Fold change (ACY-1035/veh), VPS36 (ProbeSet 11739960_a_at) / RFU SYPL1 (11715823_x_at) / Fold change /veh SYPL1 (11715823_x_at) / RFU IGFBP7 (11715501_s_at) / Fold change /veh IGFBP7 (11715501_s_at) / RFU REEP3 (11722064_at) / Fold change /veh REEP3 (11722064_at) / RFU IGLL1 (11728026_x_at) / Fold change /veh IGLL1 (11728026_x_at): dose or concentration left out as unconfirmed
Conditions: MV-4-11 cells, 48 hours

Nc1ncn([C@@H]2O[C@H](CO)[C@@H](O)[C@H]2O)c(=O)n1 [azacitidine]
Fold change /veh MYO3A (11730013_a_at): 0.99
